{"source": "patent US12076331B2", "about": "“Inositol derivatives for use in pathological crystallization” (ETH Zurich, priority 2015, dated 2024)", "experiment": "In-solution screening of CaP precipitation and aggregation in artificial renal tubular fluid (RTF)", "format": "physicochemical", "settings": "9 mM phosphate, 8 mM calcium, 4 h", "description": "(§1) Effects of (A) OEG2-IP5, (B) OEG11-IP5, (C) (OEG2)2-IP4, (D) (OEG11)2-IP4 and (E) OEG8-(IP5)2. on CaP precipitation in RTF spiked with 9 mM disodium phosphate and 8 mM calcium chloride were assessed by light microscopy followed by automated image analysis at t=4 h. Quantification of the total area covered with CaP precipitates/total area field of view (N=3, mean+SD, normalized to the control).\nas §1, with “mean size of aggregates/field” for “total area covered with CaP precipitates/total area field”, “view normalized to the ctrl” for “view”\nOverview table showing the minimal concentration of compound (FIG. 3 for the chemical structures) required to achieve complete inhibition of CaP precipitation (total area covered with crystals <10% of total area control); and minimal concentration required to prevent CaP crystal aggregation in the CaP screening assay (CaP aggregate size <50% of aggregate size control) (N=3).\nAn artificial renal tubular fluid (RTF) with a final composition of 0.05 mM oxalate, 0.005 mM sulphate, 408 mM sodium, 424 mM chloride, 0.26 mM potassium, 4 mM magnesium and 0.2 mM citrate in double distilled water was prepared according to a literature report (Fasano, J. M. et al., Kidney Int. 59, 169-178. DOI: 10.1046/j. 1523-1755.2001.00477.x, 2001). The solution was filtered with a 0.45-μm syringe filter. Twenty mM Bis-Tris buffer was added to the reported protocol to ensure pH stability throughout experiments and pH was set to 7.2. The artificial RTF was stored at room temperature for up to four months. Stock solutions of 0.25 M phosphate and 1 M calcium were prepared in double distilled water and were stored separately at −20° C.\nTwenty-x final concentration phosphate, 20× final concentration calcium and 10× final concentration compound dilutions were prepared in RTF. Assay mixture consisting of 80% RTF, 10% compound dilution, 5% phosphate dilution and 5% calcium dilution was prepared in Eppendorf tubes as follows. RTF (320 μL) was mixed with 20 μL phosphate dilution (final concentration of 9 mM), 40 μL compound dilution and 20 μL calcium dilution (final concentration of 8 mM). The assay mixture was vortexed after adding each component and 380 μL of the mixture were immediately added to 8-well glass bottom slides and incubated for 4 hat RT. CaP precipitation was assessed using a Leica DM 6000B microscope (Leica Microsystems, Wetzlar, Germany) in brightfield mode. For quantification 3 wells/condition with 3-4 images/well were imaged with a 40× objective. The total area covered with CaP deposits in percentage of the field of view and the mean size of CaP aggregates were determined.\nIn a first step, the influence of selected IP6 analogues (FIG. 5) on CaP precipitation and growth was assessed in vitro using artificial renal tubular fluid (RTF) (Table 1). In a previous study, the inventors investigated CaP protein particle formation in serum. However, an important difference to cardiovascular calcification lies in the extremely low protein content of the renal tubular fluid vs. the high abundance of proteins in blood, which can stabilize amorphous particles. Two cut-offs were chosen for assessing efficacy. First, complete inhibition was defined as a >90% reduction of detected CaP precipitates compared to the control sample without compound. Second, inhibition of CaP aggregation was defined as a >50% reduction of the mean size of aggregates when compared to the control.", "data": [{"compound": "COCCOCCO[C@@H]1C(OP(=O)(O)O)[C@H](OCCOCCOC)[C@@H](OP(=O)(O)O)C(OP(=O)(O)O)[C@H]1OP(=O)(O)O", "note": "(stereo partly shown) [(OEG2)2-IP4]", "values": [{"measurement": "effect on CaP precipitation/crystallization in words", "result": "did not further increase the inhibitory activity"}]}]}
